Each structure is given as a SMILES string.

From patent US10844049B2, “GLP-1R agonists and uses thereof” (QILU REGOR THERAPEUTICS INC., priority 2018, dated 2020) come the findings set out here.

The target in experiment [1] is T1, GLP1R (Homo sapiens, UniProt P43220). The experiment can be described thus: β-Arrestin-mediated GLP1R internalization assay (PathHunter engineered U2OS cells). The experiment is classed as cell-based. On the set-up: host or cells: PathHunter engineered U2OS cells. Particulars: averaged Bmax, percentage of control GLP-1 (7-37), highest concentration tested. The text has this: A similar assay can also be used to assess the extent of signal attenuation due to GLP-1R internalization (the β-Arrestin Internalization Assay). In this assay, activated GLP1R Internalization cells were engineered to co-express an untagged GLP1R, Enzyme Acceptor (EA) tagged β-Arrestin, and a ProLink™ (PK) tag localized to the endosomes. Activation of the GLP1R induces β-Arrestin recruitment, which leads to internalization of the Receptor/Arrestin-EA complex in PK-tagged endosomes. This forces complementation of the two β-galactosidase enzyme fragments (EA and PK) to form a functional enzyme that hydrolyzes substrate to generate a chemiluminescent signal. These cells have been modified to prevent long term propagation and expansion using a proprietary compound that has no apparent effect on assay performance.
T1 sequence (P43220 24-463): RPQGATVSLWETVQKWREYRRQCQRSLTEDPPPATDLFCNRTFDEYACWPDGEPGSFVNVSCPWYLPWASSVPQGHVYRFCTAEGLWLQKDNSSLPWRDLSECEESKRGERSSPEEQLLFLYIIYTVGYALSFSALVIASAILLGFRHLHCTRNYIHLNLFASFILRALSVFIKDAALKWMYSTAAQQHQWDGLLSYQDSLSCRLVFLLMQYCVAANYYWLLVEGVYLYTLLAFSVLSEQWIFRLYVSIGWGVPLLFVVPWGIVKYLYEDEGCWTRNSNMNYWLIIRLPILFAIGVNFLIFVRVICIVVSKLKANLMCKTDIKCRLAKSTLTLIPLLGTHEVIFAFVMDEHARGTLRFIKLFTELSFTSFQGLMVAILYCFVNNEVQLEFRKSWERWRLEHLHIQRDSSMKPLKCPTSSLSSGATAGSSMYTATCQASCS
Specifically, PathHunter engineered U2OS cells from the assay kit (Cat #93-0724E3CP0L) were plated at a density of 2000 cells/20 μL/well in a 384-well white/clear bottom plates (Greiner Cat #781098). Frozen cells were quickly thawed and 10 mL of cell plating medium (provided by the kit) was added to thawed cells. Cells were stored in a 37° C. incubator and kept for approximately 48 hours until ready for the assay.
Reference and test compounds were dissolved in 100% DMSO. 5× concentration of an agonist was prepared in serum free DMEM (Thermo Cat #11965). 5 μL of this solution was added to 20 μL cell medium in assay plate for a final top concentration of 10 μM. Plates were incubated at 37° C. for 180 min.
Following 180 min incubation, detection reagents were made up by combining 1 part Galacton Star Substrate with 5 parts Emerald II™ Solution, and 19 parts of PathHunter Cell Assay Buffer, respectively. 12.5 μL detection reagent was added to each well. The plates were then incubated at room temperature for 60 min. Plates were then read on Envision for 0.1 sec/well.
(§1) EC50 determinations were made from agonist dose-response curves analyzed with a curve fitting program using a 4-parameter logistic dose response equation.

In experiment [2] the target is T1, GLP1R. The experiment can be described thus: GLP-1R/β-Arrestin recruitment assay (PathHunter eXpress GLP1R CHO-K1 β-Arrestin GPCR Assay). It is filed as cell-based. Also noted: host or cells: PathHunter CHO-K1 GLP1R β-Arrestin cells. Particulars: averaged Bmax, percentage of control GLP-1 (7-37), highest concentration tested.
Text: GLP-1R agonist activity with respect to β-arrestin recruitment can be determined with a cell-based functional assay using PathHuntcr eXpress GLP1R CHO-K1 β-Arrestin GPCR Assay kit (DiscovcrX Cat #93-0300E2CP0M).
The PathHunter β-Arrestin GPCR assay technology utilizes a β-galactosidase (β-gal) enzyme that is split into two fragments, the smaller Enzyme Donor (ED) and the larger Enzyme Acceptor (EA). These fragments can be fused to two proteins that may interact with each other, such as EA-β-Arrestin and ED-GLP-1R. The fusions can be stably expressed in a test cell line, such as the PathHunter CHO-K1 GLP1R β-Arrestin cells described below.
Independently, these fragment fusions have no β-gal activity; however, in solution or in a living cell, they can be brought together and complement to form an active β-gal enzyme due to the interaction between the fused proteins, thus generating a chemiluminescent signal in the presence of a suitable β-gal substrate.
In this experiment, PathHunter CHO-K1 GLP1R β-Arrestin cells from the assay kit were plated at a density of 1000 or 2000 cells/20 μl/well in a 384-well white/clear bottom plates (Greiner Cat #781098). Frozen cells were quickly thawed and 10 mL of cell plating medium (provided by the kit) was added to thawed cells. Cells were stored in a 37° C. incubator under 5% CO2 and kept for approximately 48 hours until ready to ran the assay.
Reference and test compounds were dissolved in 100% DMSO. 5× concentration of an agonist was prepared in serum free DMEM (Thermo Cat #11965). 5 μL of this solution was added to 20 μL cell medium in assay plate for a final top concentration of 10 μM. Plates were then incubated at 37° C. under 5% CO2 for 90 min.
Following 90 min incubation, detection reagents were made up by combining 1 part Galacton Star Substrate with 5 parts Emerald II™ Solution, and 19 parts of PathHunter Cell Assay Buffer, respectively. 12.5 μL detection reagent was added to each well. The plates were then incubated at room temperature in dark for 60 min. Plates were then read on Envision for 0.1 sec/well.
as §1
Cells were plated at a density of 1000 or 2000 cells/20 μL/well. Frozen cells were quickly thawed and added to 10 mL of cell plating medium. Cells were stored in a 37° C. incubator under 5% CO2 and left for approximately 48 hours until ready to run the assay.
• 1) Reference agonist compound GLP1 (7-37): dissolved with DMSO to make 1 mM stock solutions, aliquoted and stored at −80° C. • 2) Test compounds (such as the compounds of the invention) came solubilized in 100% DMSO.
Prepare 10× concentration of an agonist in serum free DMEM, and add all solutions into the compound plate. 2.5 μL of this solution was added to 20 μL cell medium in assay plate for a final top concentration of 10 μM. Plates were incubated at 37° C. under 5% CO2 for 30 min. An additional 2.5 μL of Buffer was added to the entire plate for agonist mode and incubated at 37° C. for another 90 min.
Following 90 min incubation, detection reagents were made up as described. 12.5 μL was added to all wells. The plates were then incubated at room temperature in dark for 60 min. Plates were then read on Envision for 0.1 sec/well.
Data analysis: GraphPad Prism 6 was used for establishment of progression curve. EC50S or IC50s were determined by 4-parameter logistic dose response equation.

For the compound `O=C(O)c1ccc2nc(CN3CC=C(c4ccnc(OCc5ccc(Cl)cc5F)n4)CC3)n(C[C@@H]3CCO3)c2c1` [Compound 35, (S)-2-((4-(2-((4-chloro-2-fluorobenzyl)oxy)pyrimidin-4-yl)-3,6-dihydropyridin-1(2H)-yl)methyl)-1-(oxetan-2-ylmethyl)-1H-benzo[d]imidazole-6-carboxylic add], the entries for the “Bmax (POC)” value on GLP1R [1] and on GLP1R [2] were 14.3 ± 9.21 POC and 19.9 ± 4.44 POC, respectively.

In the case of `O=C(O)c1ccc2nc(CN3CC=C(c4cccc(OCc5ccc(Cl)cc5F)n4)CC3)n(C[C@@H]3CCO3)c2c1` [Compound 221, (S)-2-((6-((4-chloro-2-fluorobenzyl)oxy)-3′,6′-dihydro-[2,4′-bipyridin]-1′(2′H)-yl)methyl)-1-(oxetan-2-ylmethyl)-1H-benzo[d]imidazole-6-carboxylic acid], the “Bmax (POC)” value is on record as 30.0 ± 6.40 POC at GLP1R [1] and 35.6 ± 5.38 POC at GLP1R [2].

As to `N#Cc1ccc(COc2nc(C3=CCN(Cc4nc5ccc(C(=O)O)cc5n4C[C@@H]4CCO4)CC3)ccc2F)c(F)c1` [Compound 222, (S)-2-((6-((4-cyano-2-fluorobenzyl)oxy)-5-fluoro-3′,6′-dihydro-[2,4′-bipyridin]-1′(2′H)-yl)methyl)-1-(oxetan-2-ylmethyl)-1H-benzo[d]imidazole-6-carboxylic acid], the “Bmax (POC)” value amounted to 31.4 ± 2.62 POC on GLP1R [1] and 31.1 ± 4.67 POC at GLP1R [2].

Turning to `O=C(O)c1ccc2nc(CN3CC=C(c4cccc(OCc5ccc(Cl)cc5F)c4)CC3)n(C[C@@H]3CCO3)c2n1` [Compound 224, (S)-2-((4-(3-((4-chloro-2-fluorobenzyl)oxy)phenyl)-3,6-dihydropyridin-1(2H)-yl)methyl)-3-(oxetan-2-ylmethyl)-3H-imidazo[4,5-b]pyridine-5-carboxylic acid], the “Bmax (POC)” value at GLP1R [1] is given as 22.5 ± 1.41 POC; on GLP1R [2], 33.4 ± 3.78 POC.

Take `N#Cc1ccc(COc2cccc(C3=CCN(Cc4nc5ccc(C(=O)O)nc5n4C[C@@H]4CCO4)CC3)n2)c(F)c1` [Compound 225, (S)-2-((6-((4-cyano-2-fluorobenzyl)oxy)-3′,6′-dihydro-[2,4′-bipyridin]-1′(2′H)-yl)methyl)-3-(oxetan-2-ylmethyl)-3H-imidazo[4,5-b]pyridine-5-carboxylic add]: the “Bmax (POC)” value on GLP1R [1] stood at 24.0 ± 6.70 POC; on GLP1R [2], 32.5 ± 3.55 POC.

Consider `O=C(O)c1ccc2nc(CN3CC=C(c4ccc(F)c(OCc5ccc(Cl)cc5F)c4)CC3)n(C[C@@H]3CCO3)c2n1` [Compound 236, (S)-2-((4-(3-((4-chloro-2-fluorobenzyl)oxy)-4-fluorophenyl)-5,6-dihydropyridin-1(2H)-yl)methyl)-3-(oxetan-2-ylmethyl)-3H-imidazo[4,5-b]pyridine-5-carboxylic acid], for which the “Bmax (POC)” value was 30.0 POC at GLP1R [1] and 40.3 ± 4.10 POC on GLP1R [2].

Turning to `O=C(O)c1ccc2nc(CN3CC=C(c4cccc(OCc5ccc(Cl)cc5F)c4)CC3)n(C[C@@H]3CCO3)c2c1F` [Compound 237, (S)-2-((4-(3-((4-chloro-2-fluorobenzyl)oxy)phenyl)-3,6-dihydropyridin-1(2H)-yl)methyl)-7-fluoro-1-(oxetan-2-ylmethyl)-1H-benzo[d]imidazole-6-carboxylic acid], the “Bmax (POC)” value is 17.7 ± 1.20 POC on GLP1R [1] and 37.9 ± 4.66 POC at GLP1R [2].

As for `O=C(O)c1ccc2nc(CN3CC=C(c4ccc(F)c(OCc5ccc(Cl)cc5F)c4)CC3)n(C[C@@H]3CCO3)c2c1F` [Compound 238, (S)-2-((4-(3-((4-chloro-2-fluorobenzyl)oxy)-4-fluorophenyl)-3,6-dihydropyridin-1(2H)-yl)methyl)-7-fluoro-1-(oxetan-2-ylmethyl)-1H-benzo[d]imidazole-6-carboxylic acid], the “Bmax (POC)” value came to 52.8 ± 1.14 POC at GLP1R [1] and 55.8 ± 14.1 POC on GLP1R [2].

Consider `O=C(O)c1ccc2nc(CN3CCC(c4cccc(OCc5ccc(Cl)cc5F)c4)CC3)n(C[C@@H]3CCO3)c2c1` [Compound 239, (S)-2-((4-(3-((4-chloro-2-fluorobenzyl)oxy)phenyl)piperidin-1-yl)methyl)-1-(oxetan-2-ylmethyl)-1H-benzo[d]imidazole-6-carboxylic acid], for which the “Bmax (POC)” value on GLP1R [1] turned out to be 14.1 ± 1.57 POC; at GLP1R [2] it was 25.6 ± 5.31 POC.

Regarding `O=C(O)c1ccc2nc(CN3CC=C(c4cccc(OCc5ccc(-c6cccnc6)cc5)n4)CC3)n(C[C@@H]3CCO3)c2c1` [Compound 242, (S)-1-(oxetan-2-ylmethyl)-2-((6-((4-(pyridin-3-yl)benzyl)oxy)-3′,6′-dihydro-[2,4′-bipyridin]-1′(2′H)-yl)methyl)-1H-benzo[d]imidazole-6-carboxylic add], the “Bmax (POC)” value on GLP1R [1] was found to be 15.4 POC; at GLP1R [2] it was 22.5 ± 4.32 POC.

Consider `O=C(O)c1ccc2nc(CN3CC=C(c4cccc(OCc5ccc(-n6ccnc6)cc5)n4)CC3)n(C[C@@H]3CCO3)c2n1` [Compound 245, (S)-2-((4-(6-(4-(1H-imidazol-1-yl)benzyloxy)pyridin-2-yl)-5,6-dihydropyridin-1(2H)-yl)methyl)-3-(oxetan-2-ylmethyl)-3H-imidazo[4,5-b]pyridine-5-carboxylic add], for which the “Bmax (POC)” value is 27.7 POC at GLP1R [1] and 38.0 ± 6.42 POC on GLP1R [2].
